The results in this text go back to paper doi:10.1101/2023.04.05.535794v1 (biorxiv, 2023).

Holding throughout (assay): fluorogenic peptide-amc hydrolysis, dose-response over […] h
Common to all, as to assay type: biochemical

Experiment [1] concerns the target T1, Tv20S β5 (T. vaginalis 20S proteasome, β5 site) (Trichomonas vaginalis, UniProt A2DD57).
T1 sequence (A2DD57 54-256): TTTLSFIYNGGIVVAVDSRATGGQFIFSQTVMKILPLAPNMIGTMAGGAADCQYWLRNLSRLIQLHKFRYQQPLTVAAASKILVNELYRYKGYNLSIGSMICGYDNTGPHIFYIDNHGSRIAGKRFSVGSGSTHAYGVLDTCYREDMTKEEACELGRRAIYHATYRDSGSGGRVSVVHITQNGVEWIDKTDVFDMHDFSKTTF

Experiment [2] concerns the target T2, Tv20S β2 (T. vaginalis 20S proteasome, β2 site) (Trichomonas vaginalis, UniProt A2F2T6).
T2 sequence (A2F2T6 32-275): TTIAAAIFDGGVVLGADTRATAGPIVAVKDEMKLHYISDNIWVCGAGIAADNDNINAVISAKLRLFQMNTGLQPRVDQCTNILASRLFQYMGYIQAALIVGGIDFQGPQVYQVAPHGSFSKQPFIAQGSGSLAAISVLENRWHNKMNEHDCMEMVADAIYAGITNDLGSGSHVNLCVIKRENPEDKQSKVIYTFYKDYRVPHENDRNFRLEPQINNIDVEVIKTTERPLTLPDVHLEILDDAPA

Experiment [3] addresses T3, Tv20S β1 (T. vaginalis 20S proteasome, β1 site) (Trichomonas vaginalis, UniProt A2E7Z2).
T3 sequence (A2E7Z2 13-216): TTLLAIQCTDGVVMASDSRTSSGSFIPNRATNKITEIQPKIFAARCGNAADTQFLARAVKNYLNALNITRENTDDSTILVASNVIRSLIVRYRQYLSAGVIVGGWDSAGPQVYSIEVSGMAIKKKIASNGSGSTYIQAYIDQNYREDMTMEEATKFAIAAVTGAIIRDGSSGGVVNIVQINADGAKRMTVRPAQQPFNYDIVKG

As a reminder, the IC50 is the point on the concentration scale where inhibition reaches its midpoint. `CC(C)C[C@H](NC(=O)[C@H](CCc1ccccc1)NC(=O)CN1CCOCC1)C(=O)N[C@@H](Cc1ccccc1)C(=O)N[C@@H](CC(C)C)C(=O)[C@@]1(C)CO1` [carfilzomib]: the IC50 turned out to be 78.4 ± 17.3 nM in experiment [1] and 372 ± 92.1 nM in experiment [2].
As to `CC(C)C[C@H](NC(=O)CNC(=O)c1cc(Cl)ccc1Cl)B(O)O` [ixazomib], the IC50 in experiment [1] worked out at 34.1 ± 5.4 nM; in experiment [3], 270 ± 97.1 nM.
